Test results reported in patent US12338256B2, “Aza-tetracyclic oxazepine compounds and uses thereof” (Genentech, Inc., priority 2022, dated 2025).

Experiments:
Assay type in all cases: cell-based
[1] = test system: PC-9 (KRAS wild type human lung adenocarcinoma cell line); experiment: KRAS 3D-Cell Proliferation Assay, PC-9 (Example 503); details: 168 h, PC-9 3D culture, 7 days, CellTiter-Glo 3D, read-out: Prolif PC9 3D ATP IC50
In short: (§1)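 KRAS G12D homozygous pancreatic lines and KRAS wild-type lung lines grown as 3D cultures in ultra-low-attachment wells in RPMI-1640/10% FBS, dosed after overnight with compound dilution series (0.3% DMSO final) for 7 days at 37 °C. ATP read by CellTiter-Glo 3D luminescence; IC50 from 4-parameter Hill fit, normalized to DMSO and 1 μM staurosporine.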

[2] = test system: H1975 (KRAS wild type human lung adenocarcinoma cell line); experiment: KRAS 3D-Cell Proliferation Assay, H1975 (Example 503); details: Homo sapiens, NCI-H1975, 168 h, H1975 3D culture, 7 days, CellTiter-Glo 3D; read-out: Prolif H1975 3D ATP IC50
In short: as §1

[3] = test system: HPAC (homozygous mutant KRAS G12D human pancreatic cell line); experiment: KRAS 3D-Cell Proliferation Assay, HPAC (Example 503); details: Homo sapiens, HPAC, 168 h, HPAC 3D culture, 7 days, CellTiter-Glo 3D; read-out: Prolif HPAC 3D ATP IC50
In short: as §1

[4] = test system: AsPC-1 (homozygous mutant KRAS G12D human pancreatic cell line); experiment: KRAS 3D-Cell Proliferation Assay, AsPC-1 (Example 503); details: Homo sapiens, ASPC1, 168 h, AsPC-1 3D culture, 7 days, CellTiter-Glo 3D; read-out: Prolif AsPC-1 3D ATP IC50
In short: as §1

Structure (SMILES)	IC50 [1] [nM]	IC50 [2] [nM]	IC50 [3] [nM]	IC50 [4] [nM]
C=C1CN2CCC[C@@]2(COc2nc3c4c(nc(-c5nc(N)cc(C)c5C(F)(F)F)c(F)c4n2)O[C@@H](C)[C@@H]2[C@@H]4CC[C@H](CN32)N4)C1 [Compound 48, 6-((5S,5aS,6S,9R)-1-fluoro-5-methyl-12-(((S)-2-methylenetetrahydro-1H-pyrrolizin-7a(5H)-yl)methoxy)-5a,6,7,8,9,10-hexahydro-5H-4-oxa-3,10a,11,13,14-pentaaza-6,9-methanonaphtho[1,8-ab]heptalen-2-yl)-4-methyl-5-(trifluoromethyl)pyridin-2-amine]	≥ 20000	5760	5.52	8.24
C[C@@H]1Oc2nc(-c3nc(N)c(F)cc3C(F)(F)F)c(F)c3nc(OC[C@@]45CCCN4CC4(CC4(F)F)C5)nc(c23)N2C[C@H]3CC[C@H](N3)[C@@H]12 (stereo partly drawn) [Compound 86, 6-((5S,5aS,6S,9R)-12-(((7a′S)-2,2-difluorodihydro-1′H,3′H-spiro[cyclopropane-1,2′-pyrrolizin]-7a′(5′H)-yl)methoxy)-1-fluoro-5-methyl-5a,6,7,8,9,10-hexahydro-5H-4-oxa-3,10a,11,13,14-pentaaza[6,9]methanonaphtho[1,8-ab]heptalen-2-yl)-3-fluoro-5-(trifluoromethyl)pyridin-2-amine]	8750	5430	126	144
Cc1cc(N)c(F)c(-c2nc3c4c(nc(OCC56CCN5CC(F)(F)C6)nc4c2F)N2C[C@H]4CC[C@H](N4)[C@H]2[C@H](C)O3)c1C(F)(F)F (mixture of isomers) [Compound 33, 3-((5S,5aS,6S,9R)-12-((3,3-Difluoro-1-azabicyclo[3.2.0]heptan-5-yl)methoxy)-1-fluoro-5-methyl-5a,6,7,8,9,10-hexahydro-5H-4-oxa-3,10a,11,13,14-pentaaza-6,9-methanonaphtho[1,8-ab]heptalen-2-yl)-2-fluoro-5-methyl-4-(trifluoromethyl)aniline]	3920	1850	1.29	3.72
C[C@@H]1Oc2nc(-c3cc(O)cc4ccccc34)c(F)c3nc(OC[C@]45CCN4CC(F)(F)C5)nc(c23)N2C[C@H]3CC[C@H](N3)[C@@H]12 [Compound 25, 4-((5S,5aS,6S,9R)-12-(((R)-3,3-difluoro-1-azabicyclo[3.2.0]heptan-5-yl)methoxy)-1-fluoro-5-methyl-5a,6,7,8,9,10-hexahydro-5H-4-oxa-3,10a,11,13,14-pentaaza-6,9-methanonaphtho[1,8-ab]heptalen-2-yl)naphthalen-2-ol]	11000	10700	78.8	464
C#Cc1cccc2cc(O)cc(-c3nc4c5c(nc(OCC67CCN6CC(F)(F)C7)nc5c3F)N3C[C@H]5CC[C@H](N5)[C@H]3[C@H](C)O4)c12 (single isomer, unassigned) [Compound 20]	8680	2220	7.78	28.7
CCc1cccc2cc(O)cc(-c3nc4c5c(nc(OCC67COC(C6)C7)nc5c3F)N3C[C@H]5CC[C@H](N5)[C@H]3[C@H](C)O4)c12 [Compound 28, 4-((5S,5aS,6S,9R)-12-((2-oxabicyclo[2.1.1]hexan-4-yl)methoxy)-1-fluoro-5-methyl-5a,6,7,8,9,10-hexahydro-5H-4-oxa-3,10a,11,13,14-pentaaza-6,9-methanonaphtho[1,8-ab]heptalen-2-yl)-5-ethylnaphthalen-2-ol]	11000	20000	257	363
C[C@@H]1Oc2nc(-c3nc(N)c(F)cc3C(F)(F)F)c(F)c3nc(OC[C@]45CCN4CC(F)(F)C5)nc(c23)N2C[C@H]3CC[C@H](N3)[C@@H]12 [Compound 87, 6-((5S,5aS,6S,9R)-12-(((R)-3,3-Difluoro-1-azabicyclo[3.2.0]heptan-5-yl)methoxy)-1-fluoro-5-methyl-5a,6,7,8,9,10-hexahydro-5H-4-oxa-3,10a,11,13,14-pentaaza-6,9-methanonaphtho[1,8-ab]heptalen-2-yl)-3-fluoro-5-(trifluoromethyl)pyridin-2-amine]	≥ 20000	20000	1400	4030
Cc1c(F)c(N)cc(-c2nc3c4c(nc(OC[C@@]56CCCN5C[C@H](F)C6)nc4c2F)N2C[C@H]4CC[C@H](N4)[C@H]2[C@H](C)O3)c1Cl [Compound 76, 4-Chloro-2-fluoro-5-((5S,5aS,6S,9R)-1-fluoro-12-(((2R,7aS)-2-fluorotetrahydro-1H-pyrrolizin-7a(5H)-yl)methoxy)-5-methyl-5a,6,7,8,9,10-hexahydro-5H-4-oxa-3,10a,11,13,14-pentaaza-6,9-methanonaphtho[1,8-ab]heptalen-2-yl)-3-methylaniline]	5710	248	4.62	14.1
Cc1c(F)c(N)cc(-c2nc3c4c(nc(OC[C@]56CCN5CC(F)(F)C6)nc4c2F)N2C[C@H]4CC[C@H](N4)[C@H]2[C@H](C)O3)c1C(F)(F)F [Compound 24, 5-((5S,5aS,6S,9R)-12-(((R)-3,3-difluoro-1-azabicyclo[3.2.0]heptan-5-yl)methoxy)-1-fluoro-5-methyl-5a,6,7,8,9,10-hexahydro-5H-4-oxa-3,10a,11,13,14-pentaaza-6,9-methanonaphtho[1,8-ab]heptalen-2-yl)-2-fluoro-3-methyl-4-(trifluoromethyl)aniline]	7870	6710	1.89	4.29
Cc1c(F)c(N)cc(-c2nc3c4c(nc(OC[C@H]5CC(F)(F)CN5C)nc4c2F)N2C[C@H]4CC[C@H](N4)[C@H]2[C@H](C)O3)c1C(F)(F)F [Compound 66, 5-((5S,5aS,6S,9R)-12-(((R)-4,4-difluoro-1-methylpyrrolidin-2-yl)methoxy)-1-fluoro-5-methyl-5a,6,7,8,9,10-hexahydro-5H-4-oxa-3,10a,11,13,14-pentaaza-6,9-methanonaphtho[1,8-ab]heptalen-2-yl)-2-fluoro-3-methyl-4-(trifluoromethyl)aniline]	4780	7150	27.6	41.4
Cc1cc(N)cc(-c2nc3c4c(nc(OC[C@@]56CCCN5C[C@H](F)C6)nc4c2F)N2C[C@H]4CC[C@H](N4)[C@H]2[C@H](C)O3)c1C(F)(F)F [Compound 16, 3-((5S,5aS,6S,9R)-1-fluoro-12-(((2R,7aS)-2-fluorotetrahydro-1H-pyrrolizin-7a(5H)-yl)methoxy)-5-methyl-5a,6,7,8,9,10-hexahydro-5H-4-oxa-3,10a,11,13,14-pentaaza-6,9-methanonaphtho[1,8-ab]heptalen-2-yl)-5-methyl-4-(trifluoromethyl)aniline]	≥ 20000	255	0.7	1.3
Cc1c(F)c(N)cc(-c2nc3c4c(nc(OCC56CCN5C[C@H](F)C6)nc4c2F)N2C[C@H]4CC[C@H](N4)[C@H]2[C@H](C)O3)c1C(F)(F)F (stereo partly drawn) [Compound 29, 2-fluoro-5-((5S,5aS,6S,9R)-1-fluoro-12-(((3R)-3-fluoro-1-azabicyclo[3.2.0]heptan-5-yl)methoxy)-5-methyl-5a,6,7,8,9,10-hexahydro-5H-4-oxa-3,10a,11,13,14-pentaaza-6,9-methanonaphtho[1,8-ab]heptalen-2-yl)-3-methyl-4-(trifluoromethyl)aniline]	8190	6110	7.76	4.98
C#Cc1cccc2cc(O)cc(-c3nc4c5c(nc(OC[C@@]67CCCN6C[C@H](F)C7)nc5c3F)N3C[C@H]5CC[C@H](N5)[C@H]3[C@H](C)O4)c12 [Compound 11, 5-ethynyl-4-((5S,5aS,6S,9R)-1-fluoro-12-(((2R,7aS)-2-fluorotetrahydro-1H-pyrrolizin-7a(5H)-yl)methoxy)-5-methyl-5a,6,7,8,9,10-hexahydro-5H-4-oxa-3,10a,11,13,14-pentaaza-6,9-methanonaphtho[1,8-ab]heptalen-2-yl)naphthalen-2-ol]	≥ 20000	169	2.41	2.3
Cc1cc(N)c(F)c(-c2nc3c4c(nc(OC[C@@]56CCCN5C[C@H](F)C6)nc4c2F)N2C[C@H]4CC[C@H](N4)[C@H]2CO3)c1C(F)(F)F [Compound 36, 2-fluoro-3-((5aS,6S,9R)-1-fluoro-12-(((2R,7aS)-2-fluorotetrahydro-1H-pyrrolizin-7a(5H)-yl)methoxy)-5a,6,7,8,9,10-hexahydro-5H-4-oxa-3,10a,11,13,14-pentaaza-6,9-methanonaphtho[1,8-ab]heptalen-2-yl)-5-methyl-4-(trifluoromethyl)aniline]	6110	1130	31.4	52.4
C#Cc1c(F)ccc2cc(O)cc(-c3nc4c5c(nc(OC[C@@]67CCCN6C[C@H](F)C7)nc5c3F)N3C[C@H]5CC[C@H](N5)[C@H]3CO4)c12 [Compound 81, 5-Ethynyl-6-fluoro-4-((5aS,6S,9R)-1-fluoro-12-(((2R,7aS)-2-fluorotetrahydro-1H-pyrrolizin-7a(5H)-yl)methoxy)-5a,6,7,8,9,10-hexahydro-5H-4-oxa-3,10a,11,13,14-pentaaza-6,9-methanonaphtho[1,8-ab]heptalen-2-yl)naphthalen-2-ol]	≥ 20000	4780	12.4	14.7
